This is an account of results in article PMC9246766 (Pharmaceutical research, 2022).

Like-named read-outs stand apart in the source and are kept apart here.

The target in data set [1] is T1, OCT3 (Homo sapiens, UniProt O75751).
T1 sequence (O75751 1-556): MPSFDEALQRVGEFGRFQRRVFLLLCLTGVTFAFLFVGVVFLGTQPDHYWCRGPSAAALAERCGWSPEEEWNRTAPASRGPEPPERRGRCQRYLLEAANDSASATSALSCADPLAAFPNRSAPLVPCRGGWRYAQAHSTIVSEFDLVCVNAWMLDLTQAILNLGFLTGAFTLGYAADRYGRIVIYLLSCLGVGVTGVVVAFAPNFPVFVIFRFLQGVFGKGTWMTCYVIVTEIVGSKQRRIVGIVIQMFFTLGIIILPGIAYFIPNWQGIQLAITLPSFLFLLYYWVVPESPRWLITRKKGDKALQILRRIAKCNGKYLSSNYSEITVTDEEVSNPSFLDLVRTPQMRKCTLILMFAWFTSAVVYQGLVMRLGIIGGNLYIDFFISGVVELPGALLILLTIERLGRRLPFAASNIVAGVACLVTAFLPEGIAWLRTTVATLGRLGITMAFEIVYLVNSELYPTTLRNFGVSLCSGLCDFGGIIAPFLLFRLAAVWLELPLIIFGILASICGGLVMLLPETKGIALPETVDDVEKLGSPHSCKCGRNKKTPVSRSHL
Nature of the data set: IC50 determination against OCT3-mediated [14C]metformin uptake in HEK-293 cells overexpressing OCT3. The format is cell-based.

The target in data set [2] is T1, OCT3. The data set can be described thus: IC50 determination against OCT3-mediated ASP+ uptake in HEK-293 cells overexpressing OCT3. It is filed as cell-based.
Data set [3] deals with T1, OCT3. Nature of the data set: High throughput screen: inhibition of OCT3-mediated ASP+ uptake in HEK-293 cells stably expressing OCT3. It is filed as cell-based. To be noted: for inhibition at 20 µM: HEK293.
For data set [4] the following is noted: plasma protein binding used for unbound CMAX; source not given; cited from earlier work.
For data set [5] the following is noted: total maximum plasma concentration; ref http://www.micromedexsolutions.com/; cited from earlier work.
The conditions of data set [6]: cited from earlier work; for FDA product insert: warnings, precautions and major adverse reactions: cardiovascular / CNS related, ref FDA product insert; for Neurological side effects: stated in discussion, ref Table SII, 60; for Neurological Effects (from Literature): ref Pubmed ID of Table SII.

As usually defined, the IC50 is the concentration that gives 50% inhibition. A lower IC50 goes with higher potency. Turning to `N=C(N)NC(=O)c1nc(Cl)c(N)nc1N` [amiloride], the IC50 is 3 µM in data set [1] and 14.5 µM in data set [2].
As a reminder, the inhibition is the change of the read-out against control, counted positive when it falls. For orientation: Cmax means the peak of the concentration-time curve. Regarding `C[C@H]1[C@H](NC(=O)/C(=N\OC(C)(C)C(=O)O)c2csc(N)n2)C(=O)N1S(=O)(=O)O` [aztreonam], in data set [3], the half-maximal inhibitory concentration (IC50) was below 5 µM and the inhibition at 20 µM amounted to 87.1%. Moreover, in data set [4], the Protein binding was 56%. Besides, the Cmax in data set [5] is 585000 nM. Also, in data set [6], the “FDA product insert: warnings, precautions and major adverse reactions” value (“FDA product insert: warnings” below) is “warnings and precautions related to cardiovascular side-effects”; the Neurological side effects result is “neurological side effects”. In addition, the “FDA product insert: warnings” value in data set [6] (listed as Aztreonam) is “Adverse reaction: Cardiovascular—hypotension, transient ECG changes (ventricular bigeminy and PVC), flushing. Nervous System—seizure, confusion, vertigo, paresthesia, insomnia, dizziness”.
In data set [2], `COc1ccccc1OCCNCC(O)COc1cccc2[nH]c3ccccc3c12` (stereo not drawn) [carvedilol] had an IC50 of 19.7 µM.
In the case of `[H]/N=C(\N/C(=N/[H])NCCCCCCNC(=N)NC(=N)Nc1ccc(Cl)cc1)Nc1ccc(Cl)cc1` [chlorhexidine], the values for the half-inhibitory concentration (IC50) in data set [1] and in data set [2] were 0.4 µM and 3.7 µM, respectively.
For the compound `O=C1CCc2cc(OCCCCc3nnnn3C3CCCCC3)ccc2N1` [cilostazol], in data set [3], the IC50 was below 5 µM and the inhibition at 20 µM was 93.8%. Besides, the Protein binding in data set [4] is 95%. In addition, the Cmax in data set [5] was 2100 nM. Further, the “Neurological Effects (from Literature)” value in data set [6] is “Cilostazol attenuated blood–brain barrier leakage, Cilostazol (CSZ) was recently found to suppress the progression of cognitive decline in patients with stable AD receiving acetylcholinesterase inhibitors”.
Regarding `CNCCCN1c2ccccc2CCc2ccccc21` [desipramine], the IC50 in data set [2] stood at 177 µM. Besides, in data set [2] (HEK293, read-out: Inhibition of OCT3 activity at 20 μM), the inhibition at 20 µM was below 50%.
The compound `COc1cc2nc(N3CCN(C(=O)C4COc5ccccc5O4)CC3)nc(N)c2cc1OC` (stereo not drawn) [doxazosin] yielded an IC50 in data set [2] of 5.6 µM.
In data set [3], `CC[C@H]1CN2CCc3cc(OC)c(OC)cc3[C@@H]2C[C@@H]1C[C@H]1NCCc2cc(OC)c(OC)cc21` [emetine] had a half-maximal inhibitory concentration (IC50) below 5 µM and an inhibition at 20 µM of 82.7%. Also, the Protein binding in data set [4] is reported as 90%. Further, the Cmax in data set [5] is 600 nM.
For the compound `C=C1C[C@@H]2[C@H](CC[C@]3(C)C(=O)CC[C@@H]23)[C@@]2(C)C=CC(=O)C=C12` [exemestane], in data set [3], the IC50 was below 5 µM and at 20 µM the inhibition was 94.5%. Besides, the Protein binding in data set [4] is recorded as 90%. In addition, the Cmax in data set [5] was 1400 nM. In addition, the “FDA product insert: warnings” value in data set [6] is “No warnings and precautions regarding to cardiovascular, CNS”.
In data set [3], `CCC1=C(C)CN(C(=O)NCCc2ccc(S(=O)(=O)NC(=O)N[C@H]3CC[C@H](C)CC3)cc2)C1=O` [glimepiride] returned an IC50 below 5 µM and an inhibition at 20 µM of 87.7%. Also, the Protein binding in data set [4] is 99%. The highest concentration (Cmax) in data set [5] was 1200 nM. For the same compound, in data set [6], the “FDA product insert: warnings” value was “No warnings and precautions regarding to cardiovascular, CNS. However, oral hypoglycemic reagents are known to increase cardiovascular mortality which may be due to hypoglycemia incidence”.
For `N=C(N)N/N=C/c1c(Cl)cccc1Cl` [guanabenz], the IC50 was 1.1 µM in data set [1] and 3.2 µM in data set [2].
`Cc1ccc(NC(=O)c2ccc(CN3CCN(C)CC3)cc2)cc1Nc1nccc(-c2cccnc2)n1` [imatinib]: in data set [5], the peak concentration (Cmax) is 1200 nM.
In data set [3], `CC(=O)N1CCN(c2ccc(OCC3COC(Cn4ccnc4)(c4ccc(Cl)cc4Cl)O3)cc2)CC1` (stereo not drawn) [ketoconazole] came in with an IC50 below 5 µM and an inhibition at 20 µM of 93.4%. In data set [4], the Protein binding is on record as 91%. Moreover, the Cmax in data set [5] was 1900 nM. In data set [2], this compound gave a half-maximal inhibitory concentration (IC50) of 0.42 µM.
In data set [3], `Cc1c(OCC(F)(F)F)ccnc1C[S+]([O-])c1nc2ccccc2[nH]1` (stereo not drawn) [lansoprazole] returned an IC50 below 5 µM and an inhibition at 20 µM of 87.2%. Moreover, the Protein binding in data set [4] is 97%. Moreover, in data set [5], the highest concentration (Cmax) is 2900 nM. In addition, in data set [6], the “FDA product insert: warnings” value is “No warnings and precautions regarding to cardiovascular, CNS”; the “Neurological Effects (from Literature)” value is on record as “Increase the risk of dementia”.
As to `Cc1oncc1C(=O)Nc1ccc(C(F)(F)F)cc1` [leflunomide], in data set [3], the midpoint of inhibition, the IC50, lay at 19.6 µM and the inhibition at 20 µM stood at 50.5%. Further, the Protein binding in data set [4] is 99.3%. Also, in data set [5], the Cmax is 233000 nM. Moreover, the “FDA product insert: warnings” value in data set [6] is “No warnings and precautions regarding to cardiovascular, CNS”.
For `COc1ccc2[nH]c([S+]([O-])Cc3ncc(C)c(OC)c3C)nc2c1` (stereo not drawn) [omeprazole], in data set [3], the IC50 was found to be 11.2 µM and the inhibition at 20 µM is 64.1%. Further, the Protein binding in data set [4] is recorded as 95%. In addition, the peak concentration (Cmax) in data set [5] is 4200 nM. In addition, in data set [6], the “FDA product insert: warnings” value was “No warnings and precautions regarding to cardiovascular, CNS”; the “Neurological Effects (from Literature)” value is “Increase the risk of dementia”.
On to `COc1ccc(Cc2nccc3cc(OC)c(OC)cc23)cc1OC` [papaverine], for which the half-inhibitory concentration (IC50) turned out to be 1.2 µM in data set [1] and 4.1 µM in data set [2].
In data set [3], `C[C@]12C=CC(=O)C=C1CC[C@@H]1[C@@H]2[C@@H](O)C[C@@]2(C)[C@H]1CC[C@]2(O)C(=O)CO` [prednisolone] returned an IC50 of 9.6 µM and an inhibition at 20 µM of 67.5%. Also, the Protein binding in data set [4] is 70%. Further, the Cmax in data set [5] is 2900 nM. The “Neurological Effects (from Literature)” value in data set [6] is listed as “Behavirol effects”.
As for `CCCNCC(O)COc1ccccc1C(=O)CCc1ccccc1` (stereo not drawn) [propafenone], in data set [3], the half-inhibitory concentration (IC50) is 7 µM and 20 µM produced 74% inhibition. In data set [2], this compound gave a concentration for half-maximal inhibition (IC50) of 2.4 µM.
Take `C=C[C@H]1C[N@@]2CC[C@H]1C[C@H]2[C@H](O)c1ccnc2ccc(OC)cc12` [quinine]: the results for the 50% inhibitory concentration (IC50) in data set [3] and in data set [2] were below 5 µM and 6.6 µM, respectively. The compound further gave an inhibition at 20 µM in data set [3] of 90.6%. In addition, the “FDA product insert: warnings” value is “warnings and precautions related to cardiovascular side-effects” in data set [6]; “Warnings and precautions: QT prolongation and ventricular arrhythmias. Avoid concomitant use with drugs known to prolong QT interval” in data set [6] (listed as Quinine).
Consider `COCCCOc1ccnc(C[S+]([O-])c2nc3ccccc3[nH]2)c1C` (stereo not drawn) [rabeprazole], for which, in data set [3], the IC50 was below 5 µM and the inhibition at 20 µM is 87.3%. In addition, in data set [4], the Protein binding is on record as 96%. Moreover, the Cmax in data set [5] is 1300 nM. In addition, the “FDA product insert: warnings” value in data set [6] was “No warnings and precautions regarding to cardiovascular, CNS”.
In data set [3], `CC(=O)S[C@@H]1CC2=CC(=O)CC[C@]2(C)[C@H]2CC[C@@]3(C)[C@@H](CC[C@@]34CCC(=O)O4)[C@H]12` [spironolactone] returned a half-maximal inhibitory concentration (IC50) below 5 µM and an inhibition at 20 µM of 82.8%. Moreover, the Protein binding in data set [4] is 93%. In addition, the maximum concentration (Cmax) in data set [5] is 1100 nM. In data set [6], the “FDA product insert: warnings” value was “No warnings and precautions regarding to cardiovascular, CNS”; the “Neurological Effects (from Literature)” value is “Neurotoxicity, lipophilic and cross the blood brain barrier”.
As to `CCCc1nc2c(C)cc(-c3nc4ccccc4n3C)cc2n1Cc1ccc(-c2ccccc2C(=O)O)cc1` [telmisartan], in data set [3], testing at 20 µM gave an inhibition of 81.6%. Further, in data set [4], the Protein binding was 99.5%. This compound showed an IC50 in data set [1] of 3.9 µM. The Cmax in data set [5] is 2800 nM. In data set [2], the IC50 turned out to be 12 µM. Moreover, in data set [6], the “FDA product insert: warnings” value is “No warnings and precautions regarding to cardiovascular, CNS”; the “Neurological Effects (from Literature)” value is recorded as “Neuroprotective effect, across bbb”.
`COc1cc(Cc2cnc(N)nc2N)cc(OC)c1OC` [trimethoprim]: in data set [5], the Cmax was 5900 nM. Moreover, in data set [6], the “FDA product insert: warnings” value is “warnings and precautions related to cardiovascular side-effects”; the “Neurological Effects (from Literature)” value is “Trimethoprim/sulfamethaxazole (TMP-SMX) has been reported to be associated with encephalopathy and psychosis”; the Neurological side effects result was “neurological side effects”. Also, the “FDA product insert: warnings” value in data set [6] (listed as Trimethoprim) is “Post marketing experience: QT prolongation resulting in ventricular tachycardia and torsade de pointes”.
As for `Cc1onc(-c2ccccc2)c1-c1ccc(S(N)(=O)=O)cc1` [valdecoxib], in data set [3], it took 17.3 µM to reach half-maximal inhibition (IC50) and the inhibition at 20 µM is 53.6%. Also, the Protein binding in data set [4] is listed as 98%. Further, in data set [5], the Cmax was 2200 nM. Further, the “Neurological Effects (from Literature)” value in data set [6] is reported as “Neuroprotective effect, across bbb”.
